# According to patent US10668056B2, “Pharmaceutical composition comprising indole derivatives, process for preparation and use thereof” (VIVOLUX AB, priority 2015, dated 2020):
# Legend:
# [1] = Stability of compound A2 in aqueous media; format: physicochemical
# Description: Also, it is understood that the pH is of significance for the stability of compound A2 in aqueous media with the best stability at pH around 1-4, higher concentration of the substance results in lower pH. 1 mg/ml of said aqueous solution has a pH about 2-3.
# [2] = Stability study of lyophilised powder, accelerated 25° C./60% RH
# Description: The stability study of the di-hydrochloride ethanol co-crystal precipitate and of the lyophilized di-hydrochloride salt was conducted in accordance with the International Conference on Harmonizations (ICH) guideline Q1A (R2) Stability Testing of New Drug Substances and Products. All analytical instruments used to analyze the stability samples during the study are qualified in compliance with current cGMP.
# The LOQ is 0.05%, peaks <than LOQ was recorded as <0.05%.
# [3] = Solubility of lyophilisate in water; format: physicochemical
# Description: Glucose and mannitol were evaluated as excipients, both alone and in combination with NaCl. The best result regarding solubility, texture of the lyophilised cake and suppression of impurity formation was obtained with 5% (w/v) mannitol as additive.
# The best result concerning formation of impurities and texture of the freeze dried cake was obtained with the freeze drying cycle described in Table 3 and the mannitol content set at 5%.
# [4] = Stability study of lyophilised powder, 2-8° C.; format: physicochemical; conditions: for Any individual purity / Assay / RRT 1.13 (impurity) / RRT 1.23-1.24 (impurity) / RRT 1.47-1.51 (impurity) / Specified impurity* (hydrolysis impurity) / Total impurities / Water content / Z-isomer RRT 0.92-0.93 / pH: 2-8° C.
structure (smiles),measurement,setting,value
CC(=NNc1nnc2c(n1)[nH]c1c(C)cccc12)c1ccccn1.Cl.Cl [Compound A2],pH of aqueous solution,[1]; 1 mg/ml,2-3
same,pH of best stability,[1]; aqueous media,1-4
same,time over which formation of by-products is suppressed,"[1]; aqueous media, 1 mg/ml",up to 24 hrs
same,hydrolysis in aqueous solvents,[1]; aqueous solvents,readily hydrolyses
same,bacterial growth / sterility,[2]; 24 months period in room temperature,No bacterial growth was detected
same,appearance,[2]; 25° C./60% RH,yellow to orange freeze dried cake during the whole test period
same,appearance after reconstitution,[2]; 25° C./60% RH,yellow to orange solution without visible particles
same,reconstitution time,[2]; 25° C./60% RH,up to 3 minutes
same,Any individual purity,"[2]; 25° C./60% RH, 0 months",0.4%
same,Assay,"[2]; 25° C./60% RH, 0 months",97.8 % w/w
same,RRT 1.13 (impurity),"[2]; 25° C./60% RH, 0 months",0.05%
same,RRT 1.23-1.24 (impurity),"[2]; 25° C./60% RH, 0 months",0.06%
same,RRT 1.47-1.51 (impurity),"[2]; 25° C./60% RH, 0 months",0.37%
same,Specified impurity* (hydrolysis impurity),"[2]; 25° C./60% RH, 0 months",<0.5%
same,Total impurities,"[2]; 25° C./60% RH, 0 months",0.7%
same,Water content,"[2]; 25° C./60% RH, 0 months",0.33%
same,Z-isomer RRT 0.92-0.93,"[2]; 25° C./60% RH, 0 months",0.1%
same,pH,"[2]; 25° C./60% RH, 0 months",1.6
same,Any individual purity,"[2]; 25° C./60% RH, 1 month",0.1%
same,Assay,"[2]; 25° C./60% RH, 1 month",97.2 % w/w
same,RRT 1.13 (impurity),"[2]; 25° C./60% RH, 1 month",<0.05%
same,RRT 1.23-1.24 (impurity),"[2]; 25° C./60% RH, 1 month",0.05%
same,RRT 1.47-1.51 (impurity),"[2]; 25° C./60% RH, 1 month",0.13%
same,Specified impurity* (hydrolysis impurity),"[2]; 25° C./60% RH, 1 month",0.1%
same,Total impurities,"[2]; 25° C./60% RH, 1 month",0.3%
same,Water content,"[2]; 25° C./60% RH, 1 month",0.39%
same,Z-isomer RRT 0.92-0.93,"[2]; 25° C./60% RH, 1 month",<0.05%
same,pH,"[2]; 25° C./60% RH, 1 month",1.6
same,Any individual purity,"[2]; 25° C./60% RH, 3 months",0.2%
same,Assay,"[2]; 25° C./60% RH, 3 months",95.4 % w/w
same,RRT 1.13 (impurity),"[2]; 25° C./60% RH, 3 months",<0.05%
same,RRT 1.23-1.24 (impurity),"[2]; 25° C./60% RH, 3 months",0.08%
same,RRT 1.47-1.51 (impurity),"[2]; 25° C./60% RH, 3 months",0.05%
same,Specified impurity* (hydrolysis impurity),"[2]; 25° C./60% RH, 3 months",<0.05%
same,Total impurities,"[2]; 25° C./60% RH, 3 months",0.7%
same,Water content,"[2]; 25° C./60% RH, 3 months",0.55%
same,Z-isomer RRT 0.92-0.93,"[2]; 25° C./60% RH, 3 months",0.1%
same,pH,"[2]; 25° C./60% RH, 3 months",1.6
same,Any individual purity,"[2]; 25° C./60% RH, 6 months",0.1%
same,Assay,"[2]; 25° C./60% RH, 6 months",98.3 % w/w
same,RRT 1.13 (impurity),"[2]; 25° C./60% RH, 6 months",<0.05%
same,RRT 1.23-1.24 (impurity),"[2]; 25° C./60% RH, 6 months",0.06%
same,RRT 1.47-1.51 (impurity),"[2]; 25° C./60% RH, 6 months",<0.05%
same,Specified impurity* (hydrolysis impurity),"[2]; 25° C./60% RH, 6 months",0.08%
same,Total impurities,"[2]; 25° C./60% RH, 6 months",0.4%
same,Water content,"[2]; 25° C./60% RH, 6 months",0.45%
same,Z-isomer RRT 0.92-0.93,"[2]; 25° C./60% RH, 6 months",0.1%
same,pH,"[2]; 25° C./60% RH, 6 months",1.5
same,Any individual purity,"[2]; 25° C./60% RH, 12 months",0.1%
same,Assay,"[2]; 25° C./60% RH, 12 months",94.6 % w/w
same,RRT 1.13 (impurity),"[2]; 25° C./60% RH, 12 months",<0.05%
same,RRT 1.23-1.24 (impurity),"[2]; 25° C./60% RH, 12 months",0.06%
same,RRT 1.47-1.51 (impurity),"[2]; 25° C./60% RH, 12 months",<0.05%
same,Specified impurity* (hydrolysis impurity),"[2]; 25° C./60% RH, 12 months",0.08%
same,Total impurities,"[2]; 25° C./60% RH, 12 months",0.2%
same,Water content,"[2]; 25° C./60% RH, 12 months",0.59%
same,Z-isomer RRT 0.92-0.93,"[2]; 25° C./60% RH, 12 months",0.10%
same,pH,"[2]; 25° C./60% RH, 12 months",1.6
same,Any individual purity,"[2]; 25° C./60% RH, 18 months",0.1%
same,Assay,"[2]; 25° C./60% RH, 18 months",93.9 % w/w
same,RRT 1.23-1.24 (impurity),"[2]; 25° C./60% RH, 18 months",0.06%
same,Specified impurity* (hydrolysis impurity),"[2]; 25° C./60% RH, 18 months",0.10%
same,Total impurities,"[2]; 25° C./60% RH, 18 months",0.20%
same,Water content,"[2]; 25° C./60% RH, 18 months",0.49%
same,Z-isomer RRT 0.92-0.93,"[2]; 25° C./60% RH, 18 months",<0.05%
same,pH,"[2]; 25° C./60% RH, 18 months",1.5
same,Any individual purity,"[2]; 25° C./60% RH, 24 months",0.10%
same,Assay,"[2]; 25° C./60% RH, 24 months",94.5 % w/w
same,RRT 1.13 (impurity),"[2]; 25° C./60% RH, 24 months",<LOQ
same,RRT 1.23-1.24 (impurity),"[2]; 25° C./60% RH, 24 months",0.06%
same,RRT 1.47-1.51 (impurity),"[2]; 25° C./60% RH, 24 months",0.09%
same,Specified impurity* (hydrolysis impurity),"[2]; 25° C./60% RH, 24 months",0.10%
same,Total impurities,"[2]; 25° C./60% RH, 24 months",0.36%
same,Water content,"[2]; 25° C./60% RH, 24 months",0.45%
same,Z-isomer RRT 0.92-0.93,"[2]; 25° C./60% RH, 24 months",0.05%
same,pH,"[2]; 25° C./60% RH, 24 months",1.6
same,time the lyophilisate is stable,[2]; room temperature,at least 24 months
same,solubility in water,[3]; after lyophilisation versus prior to (A1),less soluble in water
same,solubility on addition of NaCl,[3]; increase in pH generated by NaCl,decreased the solubility
same,appearance,[4]; 2-8° C. up to 24 months,yellow to orange freeze dried cake during the whole test period
same,appearance after reconstitution,[4]; 2-8° C. up to 24 months,yellow to orange solution without visible particles
same,Any individual purity,[4]; 0 months,0.4%
same,Assay,[4]; 0 months,97.8 % w/w
same,RRT 1.13 (impurity),[4]; 0 months,0.05%
same,RRT 1.23-1.24 (impurity),[4]; 0 months,0.06%
same,RRT 1.47-1.51 (impurity),[4]; 0 months,0.37%
same,Specified impurity* (hydrolysis impurity),[4]; 0 months,<0.5%
same,Total impurities,[4]; 0 months,0.7%
same,Water content,[4]; 0 months,0.33%
same,Z-isomer RRT 0.92-0.93,[4]; 0 months,0.1%
same,pH,[4]; 0 months,1.6
same,Any individual purity,[4]; 1 month,0.3%
same,Assay,[4]; 1 month,98.4 % w/w
same,RRT 1.13 (impurity),[4]; 1 month,<0.05%
same,RRT 1.23-1.24 (impurity),[4]; 1 month,0.05%
same,RRT 1.47-1.51 (impurity),[4]; 1 month,0.32%
same,Specified impurity* (hydrolysis impurity),[4]; 1 month,<0.05%
same,Total impurities,[4]; 1 month,0.5%
same,Water content,[4]; 1 month,0.41%
same,Z-isomer RRT 0.92-0.93,[4]; 1 month,0.1%
same,pH,[4]; 1 month,1.6
same,Any individual purity,[4]; 3 months,0.1%
same,Assay,[4]; 3 months,95.9 % w/w
same,RRT 1.13 (impurity),[4]; 3 months,<0.05%
same,RRT 1.23-1.24 (impurity),[4]; 3 months,0.08%
same,RRT 1.47-1.51 (impurity),[4]; 3 months,0.05%
same,Specified impurity* (hydrolysis impurity),[4]; 3 months,<0.05%
same,Total impurities,[4]; 3 months,0.3%
same,Water content,[4]; 3 months,0.47%
same,Z-isomer RRT 0.92-0.93,[4]; 3 months,0.1%
same,pH,[4]; 3 months,1.6
same,Any individual purity,[4]; 6 months,0.1%
same,Assay,[4]; 6 months,97.3 % w/w
same,RRT 1.13 (impurity),[4]; 6 months,<0.05%
same,RRT 1.23-1.24 (impurity),[4]; 6 months,0.05%
same,RRT 1.47-1.51 (impurity),[4]; 6 months,<0.05%
same,Specified impurity* (hydrolysis impurity),[4]; 6 months,0.08%
same,Total impurities,[4]; 6 months,0.4%
same,Water content,[4]; 6 months,0.37%
same,Z-isomer RRT 0.92-0.93,[4]; 6 months,0.1%
same,pH,[4]; 6 months,1.5
same,Any individual purity,[4]; 12 months,0.1%
same,Assay,[4]; 12 months,93.9 % w/w
same,RRT 1.13 (impurity),[4]; 12 months,<0.05%
same,RRT 1.23-1.24 (impurity),[4]; 12 months,0.06%
same,RRT 1.47-1.51 (impurity),[4]; 12 months,<0.05%
same,Specified impurity* (hydrolysis impurity),[4]; 12 months,0.08%
same,Total impurities,[4]; 12 months,0.2%
same,Water content,[4]; 12 months,0.53%
same,Z-isomer RRT 0.92-0.93,[4]; 12 months,<0.05%
same,pH,[4]; 12 months,1.6
same,Any individual purity,[4]; 18 months,0.1%
same,Assay,[4]; 18 months,94.6 % w/w
same,RRT 1.13 (impurity),[4]; 18 months,0.05%
same,RRT 1.23-1.24 (impurity),[4]; 18 months,0.05%
same,RRT 1.47-1.51 (impurity),[4]; 18 months,0.05%
same,Specified impurity* (hydrolysis impurity),[4]; 18 months,0.10%
same,Total impurities,[4]; 18 months,0.3%
same,Water content,[4]; 18 months,0.43%
same,Z-isomer RRT 0.92-0.93,[4]; 18 months,<0.05%
same,pH,[4]; 18 months,1.6
same,Any individual purity,[4]; 24 months,0.10%
same,Assay,[4]; 24 months,94.2 % w/w
same,RRT 1.13 (impurity),[4]; 24 months,<LOQ
same,RRT 1.23-1.24 (impurity),[4]; 24 months,0.05%
same,RRT 1.47-1.51 (impurity),[4]; 24 months,0.10%
same,Specified impurity* (hydrolysis impurity),[4]; 24 months,0.09%
same,Total impurities,[4]; 24 months,0.34%
same,Water content,[4]; 24 months,0.39%
same,Z-isomer RRT 0.92-0.93,[4]; 24 months,0.05%
same,pH,[4]; 24 months,1.7
same,bacterial growth / sterility,[4]; 24 months period,No bacterial growth was detected
same,reconstitution time,[4]; Table 4a study,up to 3 minutes
same,degradation on storage,"[4]; vials crimp sealed under nitrogen, 5° C., 24 months",no degradation was seen
